Experimental data taken from ChEMBL document CHEMBL1201862, “PubChem BioAssay data set” (2004).
Activity calls are given as the source filed them.

Tests used:
[1] = Luminescence Cell-Based Dose Confirmation HTS to Identify Inhibitors of Platelet Dense Granule Release. [Related pubchem assays: 1663 (Primary HTS), 1678 (Summary of Project)]; assay type: functional
[2] = target: T1, Luciferin 4-monooxygenase (Photinus pyralis, UniProt P08659); test: firefly luciferase enzyme inhibitors, dose response, biochemical, luminescence (AID 1891)
H9c2 = test: cells; assay type: functional, cell-based; conditions: Rattus norvegicus, H9c2, Myocardium;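 note: confirmatory concentration-response retest of ultra-high-throughput screening hits for modulation of myocardial damage; cell death induced by hydrogen peroxide oxidative stress; compound pretreatment for 60 min then peroxide exposure for 2 h; potency is for protecting the cells against peroxide damage rather than for killing them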
[3] = inhibitors of Bluetongue virus cytopathic effect, confirmation, arbovirus, BSR cells (AID 1250); assay type: functional;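 note: protection from viral cytopathic effect measured as cell viability by ATP luminescence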
Bcl-2-related protein A1 [4] = target: T2, Bcl-2-related protein A1 (Mus musculus, UniProt Q07440); test: Bfl-1 binding inhibitors, SAR follow-up, biochemical, fluorescence polarization (AID 1070)
T2 sequence (Q07440 whole entry): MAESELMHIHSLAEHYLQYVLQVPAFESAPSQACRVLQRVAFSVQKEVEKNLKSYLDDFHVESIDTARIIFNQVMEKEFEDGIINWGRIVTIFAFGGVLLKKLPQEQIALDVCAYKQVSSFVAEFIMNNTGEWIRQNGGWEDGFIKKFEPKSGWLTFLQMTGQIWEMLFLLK

[5] = target: Glyceraldehyde-3-phosphate dehydrogenase (Homo sapiens, UniProt P04406)
Bcl-2-related protein A1 [6] = target: T2, Bcl-2-related protein A1; test: Bfl-1 inhibitors blocking BH3 peptide binding, confirmation, biochemical, TR-FRET, mouse Bfl-1 (AID 621);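 note: TR-FRET binding of GST-Bfl-1 to FITC-labelled Bid peptide via terbium antibody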
[7] = target: T3, Sentrin-specific protease 8 (Homo sapiens, UniProt Q96LD8); assay type: functional;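 note: luminescence read-out of SENP8 inhibition, dose-response confirmation following an ultra-high-throughput screen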
T3 sequence (Q96LD8 whole entry): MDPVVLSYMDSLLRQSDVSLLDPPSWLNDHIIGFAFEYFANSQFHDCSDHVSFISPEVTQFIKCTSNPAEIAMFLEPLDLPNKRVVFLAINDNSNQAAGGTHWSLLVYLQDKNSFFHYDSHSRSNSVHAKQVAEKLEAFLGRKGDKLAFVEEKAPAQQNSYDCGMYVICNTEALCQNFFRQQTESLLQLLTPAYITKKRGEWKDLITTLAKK

[8] = Luminescence Cell-Based Dose Response to Identify Activators of Luciferase Translation or Activity in H4-C Neuroglioblastoma Cells. [Related pubchem assays: 1829 (Project Summary), 1814 (Primary HTS)]; assay type: functional
[9] = Luminescence Cell-Based Dose Response to Identify Activators of 5'UTR Stem-Loop Driven Prion Protein mRNA Translation in H4-C Neuroglioblastoma Cells. [Related pubchem assays: 1829 (Project Summary), 1814 (Primary HTS)]; assay type: functional
[10] = Luminescence Cell-Based Dose Response HTS to Identify Activators of Luciferase Translation or Activity in H4 […] Cells. [Related pubchem assays: 1829 (Project Summary), 1814 (Primary HTS)]; assay type: functional
[11] = Luminescence Cell-Based Dose Confirmation to Identify Activators of 5'UTR Stem-Loop Driven Alpha-Synuclein mRNA Translation in H4 Neuroglioblastoma Cells. [Related pubchem assays: 1829 (Project Summary), 1814 (Primary HTS)]; assay type: functional
[12] = target: T4, Sentrin-specific protease 6 (Homo sapiens, UniProt Q9GZR1); assay type: functional;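 note: Luminescence-based dose-response confirmatory assay of SENP6 inhibition, following up an ultra-high-throughput screen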
T4 sequence (Q9GZR1 whole entry): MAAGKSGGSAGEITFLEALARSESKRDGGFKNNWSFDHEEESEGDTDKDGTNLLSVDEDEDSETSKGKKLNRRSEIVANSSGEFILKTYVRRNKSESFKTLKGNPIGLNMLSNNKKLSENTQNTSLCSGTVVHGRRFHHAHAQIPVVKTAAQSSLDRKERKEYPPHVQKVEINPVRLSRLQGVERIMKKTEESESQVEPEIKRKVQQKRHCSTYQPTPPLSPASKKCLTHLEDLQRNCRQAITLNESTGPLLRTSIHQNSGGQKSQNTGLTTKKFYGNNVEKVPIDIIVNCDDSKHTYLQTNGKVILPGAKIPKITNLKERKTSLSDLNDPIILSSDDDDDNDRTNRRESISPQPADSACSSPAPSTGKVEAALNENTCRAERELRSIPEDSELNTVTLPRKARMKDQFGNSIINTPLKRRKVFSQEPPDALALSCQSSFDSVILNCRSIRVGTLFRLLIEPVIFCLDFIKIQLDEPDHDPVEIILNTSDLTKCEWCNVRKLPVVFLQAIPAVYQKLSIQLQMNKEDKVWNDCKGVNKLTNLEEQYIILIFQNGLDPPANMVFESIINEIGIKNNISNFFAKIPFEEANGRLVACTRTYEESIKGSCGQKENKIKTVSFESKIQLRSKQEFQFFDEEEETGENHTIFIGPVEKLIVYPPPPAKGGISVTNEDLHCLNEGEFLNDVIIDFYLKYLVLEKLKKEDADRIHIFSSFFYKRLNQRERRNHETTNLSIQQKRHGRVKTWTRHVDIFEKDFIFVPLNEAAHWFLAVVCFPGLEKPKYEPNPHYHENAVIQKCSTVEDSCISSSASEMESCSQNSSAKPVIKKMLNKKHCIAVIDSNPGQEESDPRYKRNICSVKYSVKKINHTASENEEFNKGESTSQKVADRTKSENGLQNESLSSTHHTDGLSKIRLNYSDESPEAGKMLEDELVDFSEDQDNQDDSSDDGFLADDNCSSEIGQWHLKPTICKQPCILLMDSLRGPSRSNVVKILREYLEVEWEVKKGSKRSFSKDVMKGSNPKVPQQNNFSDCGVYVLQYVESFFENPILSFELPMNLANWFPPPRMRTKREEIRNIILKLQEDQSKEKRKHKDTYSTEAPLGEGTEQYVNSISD

Caspase-3 = target: T5, Caspase-3 (Homo sapiens, UniProt P42574); assay type: functional;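 note: Dose-response selectivity test against caspase-3 for candidate inhibitors of sentrin-specific proteases (SENPs)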
T5 sequence (P42574 whole entry): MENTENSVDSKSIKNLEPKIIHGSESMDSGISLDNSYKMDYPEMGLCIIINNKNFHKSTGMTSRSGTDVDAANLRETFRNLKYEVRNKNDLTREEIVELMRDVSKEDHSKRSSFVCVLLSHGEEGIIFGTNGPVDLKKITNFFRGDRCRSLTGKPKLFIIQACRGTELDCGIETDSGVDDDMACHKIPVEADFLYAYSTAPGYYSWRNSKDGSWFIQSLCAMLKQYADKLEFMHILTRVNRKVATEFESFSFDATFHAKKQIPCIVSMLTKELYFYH

[13] = target: T6, Sentrin-specific protease 7 (Homo sapiens, UniProt Q9BQF6); assay type: functional;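 note: Luminescence-based dose-response confirmation of ultra-high-throughput screening hits, measuring inhibition of SENP7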
T6 sequence (Q9BQF6 whole entry): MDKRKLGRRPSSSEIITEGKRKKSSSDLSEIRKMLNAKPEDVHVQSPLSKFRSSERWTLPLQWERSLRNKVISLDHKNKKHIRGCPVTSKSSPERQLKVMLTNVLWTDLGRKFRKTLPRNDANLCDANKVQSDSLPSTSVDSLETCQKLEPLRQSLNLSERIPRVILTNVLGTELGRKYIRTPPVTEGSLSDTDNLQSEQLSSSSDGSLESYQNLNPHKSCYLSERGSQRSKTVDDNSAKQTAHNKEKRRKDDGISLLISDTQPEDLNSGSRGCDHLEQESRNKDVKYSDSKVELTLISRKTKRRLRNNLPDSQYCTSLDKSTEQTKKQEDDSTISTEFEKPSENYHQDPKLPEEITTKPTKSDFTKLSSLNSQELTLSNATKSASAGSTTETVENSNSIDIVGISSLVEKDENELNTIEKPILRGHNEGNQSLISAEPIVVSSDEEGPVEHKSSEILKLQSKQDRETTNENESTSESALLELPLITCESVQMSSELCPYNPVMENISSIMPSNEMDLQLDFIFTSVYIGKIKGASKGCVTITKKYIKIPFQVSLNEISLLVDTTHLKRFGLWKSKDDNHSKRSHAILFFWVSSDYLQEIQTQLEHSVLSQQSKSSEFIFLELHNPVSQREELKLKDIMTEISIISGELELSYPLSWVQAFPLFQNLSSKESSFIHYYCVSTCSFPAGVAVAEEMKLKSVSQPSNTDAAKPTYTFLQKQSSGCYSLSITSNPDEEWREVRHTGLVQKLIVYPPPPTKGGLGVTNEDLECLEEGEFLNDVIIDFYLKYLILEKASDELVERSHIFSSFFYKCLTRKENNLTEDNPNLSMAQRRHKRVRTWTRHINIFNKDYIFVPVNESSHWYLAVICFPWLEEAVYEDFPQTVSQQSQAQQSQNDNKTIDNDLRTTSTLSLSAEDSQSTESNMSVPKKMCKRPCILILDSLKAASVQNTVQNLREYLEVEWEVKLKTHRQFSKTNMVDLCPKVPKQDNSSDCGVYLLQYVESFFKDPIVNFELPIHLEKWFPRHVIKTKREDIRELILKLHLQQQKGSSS

H4 = test: Luminescence Cell-Based Dose Response HTS to Identify Activators of 5'UTR Stem-Loop Driven Prion Protein mRNA Translation in H4 Neuroglioblastoma Cells. [Related pubchem assays: 1829 (Project Summary), 1814 (Primary HTS)]; assay type: functional; conditions: Homo sapiens
[14] = A Cell Based Secondary Assay To Explore Cytotoxicity of Compounds that Sensitize Mycobacterium Tuberculosis to Beta-Lactam Antibiotics.; assay type: functional
[15] = target: T1, Luciferin 4-monooxygenase; test: Counter Screen for Luciferase-based Assay Positives. [Related pubchem assays: 620, 618, 411 ]
HT-1080 = test: cytotoxicity in HT1080 fibrosarcoma cells, cell-based, fluorescence readout (AID 620); assay type: functional; conditions: Homo sapiens
[16] = target: Lytic switch protein BZLF1 (Epstein-Barr virus (strain B95-8) (HHV-4) (Human herpesvirus 4), UniProt P03206); test: EBV ZTA inhibitors, dose response, counter-screen for EBNA-1 inhibitor project, biochemical, fluorescence polarization, Epstein-Barr virus, 1536-well (AID 2377); set-up: species or system human gammaherpesvirus 4;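 note: fluorescence polarization of Cy5-labelled ZRE DNA probe bound by purified Zta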
[17] = target: Epstein-Barr nuclear antigen 1 (Epstein-Barr virus (strain B95-8) (HHV-4) (Human herpesvirus 4), UniProt P03211); test: EBNA-1 inhibitors, dose response, biochemical, fluorescence polarization, 1536-well (AID 2381); set-up: species or system human gammaherpesvirus 4;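 note: fluorescence polarization of a Cy5 DNA probe bound by EBNA-1 protein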
[18] = target: Peroxisome proliferator-activated receptor gamma/Nuclear receptor coactivator 2 (Homo sapiens, UniProt P37231); assay type: functional;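 note: agonist potency for raising coactivator recruitment to the receptor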
Cytochrome P450 3A4 = Cytochrome P450 3A4 (Homo sapiens, UniProt P08684);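 note: CYP3A4 tested as one member of a cytochrome P450 panel screen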
[19] = target: Peroxisome proliferator-activated receptor gamma/Nuclear receptor coactivator 1 (Homo sapiens, UniProt P37231); assay type: functional;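 note: agonist potency as compounds enhance coactivator SRC-1 recruitment to PPARgamma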
[20] = target: Peroxisome proliferator-activated receptor gamma/Nuclear receptor coactivator 3 (Homo sapiens, UniProt P37231); assay type: functional;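 note: agonist potency for raising coactivator recruitment to the receptor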
Protein skinhead-1 = target: T7, Protein skinhead-1 (Caenorhabditis elegans, UniProt P34707); assay type: functional
T7 sequence (P34707 whole entry): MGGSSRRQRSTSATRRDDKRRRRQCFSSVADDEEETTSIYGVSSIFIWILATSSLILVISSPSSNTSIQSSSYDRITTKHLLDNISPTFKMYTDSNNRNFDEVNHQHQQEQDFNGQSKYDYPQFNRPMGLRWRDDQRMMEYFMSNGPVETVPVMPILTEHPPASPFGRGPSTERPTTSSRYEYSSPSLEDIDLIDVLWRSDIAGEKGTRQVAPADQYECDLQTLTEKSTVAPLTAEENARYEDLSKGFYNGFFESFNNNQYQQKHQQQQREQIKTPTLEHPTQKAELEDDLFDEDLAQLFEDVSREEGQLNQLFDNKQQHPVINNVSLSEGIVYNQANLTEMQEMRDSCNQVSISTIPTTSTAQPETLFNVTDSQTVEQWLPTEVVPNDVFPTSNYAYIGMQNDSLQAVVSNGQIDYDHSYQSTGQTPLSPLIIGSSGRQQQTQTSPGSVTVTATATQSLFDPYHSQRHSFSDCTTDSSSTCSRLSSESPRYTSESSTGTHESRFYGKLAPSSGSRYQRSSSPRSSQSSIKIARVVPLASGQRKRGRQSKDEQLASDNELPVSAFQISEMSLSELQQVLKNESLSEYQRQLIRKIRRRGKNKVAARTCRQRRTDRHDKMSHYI

Cytochrome P450 2C19 = Cytochrome P450 2C19 (Homo sapiens, UniProt P33261); test: Cytochrome panel assay with activity outcomes. Panel member name: p450-cyp2c19 Compounds with AC50 equal or less than 10 uM are considered active; assay type: functional; conditions: read-out: AC50
Cytochrome P450 2C19, sequence (P33261 whole entry): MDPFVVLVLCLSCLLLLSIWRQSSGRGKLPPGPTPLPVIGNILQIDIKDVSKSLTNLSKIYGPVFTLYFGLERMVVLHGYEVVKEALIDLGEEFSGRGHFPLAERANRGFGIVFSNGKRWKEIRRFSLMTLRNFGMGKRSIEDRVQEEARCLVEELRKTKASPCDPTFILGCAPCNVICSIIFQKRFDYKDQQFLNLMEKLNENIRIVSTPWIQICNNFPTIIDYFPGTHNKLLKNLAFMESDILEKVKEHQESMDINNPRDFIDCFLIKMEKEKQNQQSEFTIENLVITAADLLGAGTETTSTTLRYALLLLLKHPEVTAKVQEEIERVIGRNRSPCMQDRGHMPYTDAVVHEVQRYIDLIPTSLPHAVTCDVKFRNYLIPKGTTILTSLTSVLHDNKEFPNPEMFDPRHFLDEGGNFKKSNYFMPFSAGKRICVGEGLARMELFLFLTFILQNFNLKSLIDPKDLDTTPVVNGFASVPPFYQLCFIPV

T1 sequence (P08659 whole entry): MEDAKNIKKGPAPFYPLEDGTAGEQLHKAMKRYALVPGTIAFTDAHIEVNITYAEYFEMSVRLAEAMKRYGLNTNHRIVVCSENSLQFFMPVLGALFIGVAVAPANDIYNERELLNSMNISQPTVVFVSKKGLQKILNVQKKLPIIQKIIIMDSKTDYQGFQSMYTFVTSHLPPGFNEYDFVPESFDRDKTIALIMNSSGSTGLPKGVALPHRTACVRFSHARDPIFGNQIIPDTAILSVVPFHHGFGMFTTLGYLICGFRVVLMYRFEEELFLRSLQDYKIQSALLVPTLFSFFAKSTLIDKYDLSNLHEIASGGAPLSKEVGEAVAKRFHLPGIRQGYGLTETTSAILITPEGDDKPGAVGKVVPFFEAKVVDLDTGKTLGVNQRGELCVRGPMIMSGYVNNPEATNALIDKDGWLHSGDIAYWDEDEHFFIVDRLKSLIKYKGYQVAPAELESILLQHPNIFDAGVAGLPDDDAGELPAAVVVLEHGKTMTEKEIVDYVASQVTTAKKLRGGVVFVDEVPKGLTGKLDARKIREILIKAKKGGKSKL
Lytic switch protein BZLF1, sequence (P03206 whole entry): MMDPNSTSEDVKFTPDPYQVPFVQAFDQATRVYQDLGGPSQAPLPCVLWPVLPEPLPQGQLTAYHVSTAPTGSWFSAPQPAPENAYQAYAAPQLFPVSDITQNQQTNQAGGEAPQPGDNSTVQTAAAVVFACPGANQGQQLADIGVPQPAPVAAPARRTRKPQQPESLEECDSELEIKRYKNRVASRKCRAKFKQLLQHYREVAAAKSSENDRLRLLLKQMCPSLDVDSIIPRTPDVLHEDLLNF
Epstein-Barr nuclear antigen 1, sequence (P03211 whole entry): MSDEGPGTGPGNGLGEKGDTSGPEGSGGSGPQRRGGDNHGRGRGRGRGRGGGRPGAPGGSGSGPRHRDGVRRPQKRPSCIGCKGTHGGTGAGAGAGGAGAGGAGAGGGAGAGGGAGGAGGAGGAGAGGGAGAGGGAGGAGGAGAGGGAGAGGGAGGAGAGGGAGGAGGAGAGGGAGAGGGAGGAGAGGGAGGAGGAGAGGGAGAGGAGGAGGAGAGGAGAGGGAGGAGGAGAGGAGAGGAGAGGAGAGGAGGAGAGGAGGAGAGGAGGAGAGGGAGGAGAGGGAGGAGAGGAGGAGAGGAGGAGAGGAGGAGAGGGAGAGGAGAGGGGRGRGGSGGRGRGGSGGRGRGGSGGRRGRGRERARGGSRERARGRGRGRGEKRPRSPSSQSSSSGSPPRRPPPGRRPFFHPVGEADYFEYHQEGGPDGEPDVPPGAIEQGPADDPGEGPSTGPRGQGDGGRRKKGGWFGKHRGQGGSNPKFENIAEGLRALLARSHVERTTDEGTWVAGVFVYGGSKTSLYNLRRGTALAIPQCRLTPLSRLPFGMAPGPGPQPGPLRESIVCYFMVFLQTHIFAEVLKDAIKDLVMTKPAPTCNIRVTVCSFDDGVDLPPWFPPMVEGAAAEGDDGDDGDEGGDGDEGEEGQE
Peroxisome proliferator-activated receptor gamma/Nuclear receptor coactivator 3, sequence (P37231 whole entry): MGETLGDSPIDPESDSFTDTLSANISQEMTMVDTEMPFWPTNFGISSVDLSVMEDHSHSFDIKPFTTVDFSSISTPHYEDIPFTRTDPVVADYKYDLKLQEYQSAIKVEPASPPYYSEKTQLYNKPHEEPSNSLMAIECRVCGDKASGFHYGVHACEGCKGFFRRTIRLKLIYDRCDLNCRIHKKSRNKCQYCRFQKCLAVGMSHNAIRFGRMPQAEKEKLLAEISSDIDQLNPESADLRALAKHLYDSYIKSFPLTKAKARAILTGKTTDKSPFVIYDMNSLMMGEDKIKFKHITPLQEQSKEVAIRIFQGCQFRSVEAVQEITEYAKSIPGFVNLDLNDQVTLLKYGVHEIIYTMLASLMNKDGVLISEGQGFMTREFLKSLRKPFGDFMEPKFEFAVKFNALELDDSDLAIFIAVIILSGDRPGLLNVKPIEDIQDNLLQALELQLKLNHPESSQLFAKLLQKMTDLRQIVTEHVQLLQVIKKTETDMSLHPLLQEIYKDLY
Peroxisome proliferator-activated receptor gamma/Nuclear receptor coactivator 3, sequence (Q9Y6Q9 whole entry, further chain): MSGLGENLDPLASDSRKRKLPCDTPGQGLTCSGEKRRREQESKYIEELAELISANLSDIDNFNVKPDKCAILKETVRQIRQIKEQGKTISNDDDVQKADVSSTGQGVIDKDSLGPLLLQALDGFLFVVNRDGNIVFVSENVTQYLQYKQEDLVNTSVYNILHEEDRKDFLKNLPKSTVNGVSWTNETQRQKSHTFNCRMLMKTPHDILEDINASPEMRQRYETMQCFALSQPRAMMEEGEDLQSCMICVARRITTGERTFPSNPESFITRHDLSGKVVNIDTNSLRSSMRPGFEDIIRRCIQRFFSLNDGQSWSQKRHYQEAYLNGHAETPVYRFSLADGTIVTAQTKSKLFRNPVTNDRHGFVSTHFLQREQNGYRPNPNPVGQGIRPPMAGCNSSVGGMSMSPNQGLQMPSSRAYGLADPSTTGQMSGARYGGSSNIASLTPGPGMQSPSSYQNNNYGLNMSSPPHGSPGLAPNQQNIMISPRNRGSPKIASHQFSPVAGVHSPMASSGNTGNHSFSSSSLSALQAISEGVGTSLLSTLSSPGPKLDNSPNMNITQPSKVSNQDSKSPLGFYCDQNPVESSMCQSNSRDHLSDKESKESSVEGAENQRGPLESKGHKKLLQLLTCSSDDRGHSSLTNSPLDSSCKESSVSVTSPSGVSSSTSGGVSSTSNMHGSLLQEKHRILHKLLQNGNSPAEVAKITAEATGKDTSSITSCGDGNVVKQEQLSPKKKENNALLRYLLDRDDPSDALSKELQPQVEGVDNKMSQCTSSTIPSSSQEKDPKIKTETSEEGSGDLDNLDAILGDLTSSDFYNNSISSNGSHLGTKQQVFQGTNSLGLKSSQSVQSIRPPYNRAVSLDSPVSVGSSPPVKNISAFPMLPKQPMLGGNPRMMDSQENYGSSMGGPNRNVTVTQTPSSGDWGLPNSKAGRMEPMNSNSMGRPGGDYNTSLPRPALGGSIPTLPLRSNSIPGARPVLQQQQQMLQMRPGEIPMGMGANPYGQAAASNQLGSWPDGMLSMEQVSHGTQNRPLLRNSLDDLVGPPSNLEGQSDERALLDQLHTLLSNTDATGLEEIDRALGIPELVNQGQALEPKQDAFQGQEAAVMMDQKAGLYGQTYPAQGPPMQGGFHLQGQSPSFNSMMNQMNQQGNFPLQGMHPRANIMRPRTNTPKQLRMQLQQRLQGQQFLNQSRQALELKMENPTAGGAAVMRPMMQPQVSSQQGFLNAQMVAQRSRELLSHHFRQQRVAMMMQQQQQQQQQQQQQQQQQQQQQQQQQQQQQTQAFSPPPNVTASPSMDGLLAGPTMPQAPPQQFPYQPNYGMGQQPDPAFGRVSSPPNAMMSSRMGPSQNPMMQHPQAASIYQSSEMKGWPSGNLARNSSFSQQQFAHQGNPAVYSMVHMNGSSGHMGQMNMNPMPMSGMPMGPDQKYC
Cytochrome P450 3A4, sequence (P08684 whole entry): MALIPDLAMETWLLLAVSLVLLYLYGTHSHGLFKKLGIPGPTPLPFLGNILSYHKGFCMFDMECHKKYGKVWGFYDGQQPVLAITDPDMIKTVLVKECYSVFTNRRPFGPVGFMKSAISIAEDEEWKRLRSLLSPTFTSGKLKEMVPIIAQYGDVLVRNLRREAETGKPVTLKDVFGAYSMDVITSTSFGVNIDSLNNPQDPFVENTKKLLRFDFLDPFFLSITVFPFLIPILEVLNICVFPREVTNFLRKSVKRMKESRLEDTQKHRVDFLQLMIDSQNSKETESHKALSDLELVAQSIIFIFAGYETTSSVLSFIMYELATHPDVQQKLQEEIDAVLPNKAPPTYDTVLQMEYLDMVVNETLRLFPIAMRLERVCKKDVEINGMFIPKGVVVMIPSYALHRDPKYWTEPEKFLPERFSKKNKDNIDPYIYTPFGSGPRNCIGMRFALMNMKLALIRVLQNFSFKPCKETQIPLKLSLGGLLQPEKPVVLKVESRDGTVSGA
Glyceraldehyde-3-phosphate dehydrogenase, sequence (P04406 whole entry): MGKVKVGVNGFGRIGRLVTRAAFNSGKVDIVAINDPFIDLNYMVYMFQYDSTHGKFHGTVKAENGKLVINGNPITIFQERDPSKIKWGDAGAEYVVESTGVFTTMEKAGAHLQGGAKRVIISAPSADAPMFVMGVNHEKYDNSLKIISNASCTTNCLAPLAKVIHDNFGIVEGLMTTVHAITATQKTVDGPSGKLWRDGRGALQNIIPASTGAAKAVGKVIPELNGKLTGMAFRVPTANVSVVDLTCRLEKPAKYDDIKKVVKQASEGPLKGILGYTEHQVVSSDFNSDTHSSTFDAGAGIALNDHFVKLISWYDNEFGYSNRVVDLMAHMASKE

With `COc1ccc(-c2nnc(-c3cc(OC)c(OC)c(OC)c3)o2)cc1OC` the EC50 [1] was > 112 µM (not active), the EC50 [2] was > 112 µM (not active) and the IC50 (H9c2) was 12.5 µM (active). The IC50 [3] was 27.5 µM (active).

For `CCOc1ccccc1N1CCN(C2=C(Cl)C(=O)N(c3ccc(Cl)c(Cl)c3)C2=O)CC1`, the IC50 (Bcl-2-related protein A1 [4]) was > 100 µM (not active), the IC50 [5] was > 100 µM (not active) and the IC50 (Bcl-2-related protein A1 [6]) was > 100 µM (not active).

With `O=C(Nc1cccc(F)c1)Nc1ccc2c(c1)CCC2` the IC50 [7] was > 100 µM (inactive), the EC50 [8] was 0.463 µM (active) and the EC50 [9] was 0.63 µM (active). The EC50 [10] was < 0.1 µM (active), the EC50 [11] was 10.7 µM (active) and the IC50 [12] was > 100 µM (inactive). The IC50 (Caspase-3) was 57.8 µM (active), the IC50 [13] was 2.85 µM (active) and the EC50 (H4) was > 120 µM (not active).

With `C[C@H](NC(=O)c1[nH]cnc1C(=O)Nc1cccc(Cl)c1)c1ccccc1` the CC50 [14] was 19.3 µM (active).

With `c1ccc(-c2ccc(-c3ccccn3)nn2)nc1` the EC50 [15] was > 100 µM (not active) and the EC50 (HT-1080) was > 50 µM (not active).

With `COc1cc(OC)c(/C=C2\SC(=O)N(CC(=O)Nc3ccccc3F)C2=O)c(OC)c1` the IC50 [16] was > 111 µM (not active) and the IC50 [17] was 1.98 µM (active).

In the case of `Cc1ccccc1OCC(=O)Nc1sc(C(=O)Nc2cccc(C)c2C)c(C)c1C#N`, the EC50 [18] is reported as 36.5 µM (not active), the AC50 (Cytochrome P450 3A4) is reported as “inconclusive” and the EC50 [19] is reported as 52.4 µM (not active). For the same compound, the EC50 [20] was < 79.4 µM (not active).

With `Cc1ccc2nc(NC(=O)c3ccco3)sc2c1` the IC50 (Protein skinhead-1) was > 100 µM (inactive), the EC50 [15] was 18.9 µM (active) and the EC50 (HT-1080) was > 50 µM (not active).

For `COc1ccc2nc(O)c(-c3nnn(-c4ccc(C)cc4)n3)cc2c1`, the IC50 (Bcl-2-related protein A1 [4]) was > 100 µM (not active) and the IC50 (Bcl-2-related protein A1 [6]) was > 100 µM (not active).

In the case of `O=C(CC1CCCC1)Nc1ccc2c(c1)CCC2`, the EC50 [18] is reported as > 79.4 µM (not active), the AC50 (Cytochrome P450 2C19) is reported as 7.08 µM (inconclusive) and the EC50 [19] is reported as > 79.4 µM (not active). The EC50 [20] was > 79.4 µM (not active).

With `COc1ccc(N/C=C2/C(=O)N(c3ccc(OC)cc3)C(=O)c3ccccc32)cc1` the IC50 [16] was > 111 µM (not active) and the IC50 [17] was 8.99 µM (active).
